Reference: patent US7964591B2, “Pyridazine derivatives and their use as therapeutic agents” (Novartis Pharma AG, priority 2003, dated 2011)

Target: T1, stearoyl-CoA desaturase (SCD) (Mus musculus, UniProt P13516)
T1 sequence (P13516 1-355): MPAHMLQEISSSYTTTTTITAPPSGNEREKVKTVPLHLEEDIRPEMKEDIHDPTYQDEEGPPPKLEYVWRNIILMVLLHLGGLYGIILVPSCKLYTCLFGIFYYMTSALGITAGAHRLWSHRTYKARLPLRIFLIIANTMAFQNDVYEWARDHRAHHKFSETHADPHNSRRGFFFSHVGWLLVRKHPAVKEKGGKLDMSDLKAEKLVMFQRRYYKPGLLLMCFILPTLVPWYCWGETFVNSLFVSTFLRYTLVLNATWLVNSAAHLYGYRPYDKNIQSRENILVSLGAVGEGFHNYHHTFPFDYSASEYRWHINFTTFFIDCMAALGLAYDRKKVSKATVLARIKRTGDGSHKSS
Assay: Stearoyl-CoA desaturase inhibition using mouse liver microsomes (HTS microsomal assay, IC50 follow-up)
Details: % SCD enzyme activity remaining at 10 μM test compound
Protocol: Livers are immediately rinsed with cold 0.9% NaCl solution, weighed and minced with scissors. All procedures are performed at 4° C. unless specified otherwise. Livers are homogenized in a solution (1:3 w/v) containing 0.25 M sucrose, 62 mM potassium phosphate buffer (pH 7.0), 0.15 M KCl, 1.5 mM N-acetyleysteine, 5 mM MgCl2, and 0.1 mM EDTA using 4 strokes of a Potter-Elvehjem tissue homogenizer. The homogenate is centrifuged at 10,400×g for 20 min to eliminate mitochondria and cellular debris. The supernatant is filtered through a 3-layer cheesecloth and centrifuged at 105,000×g for 60 min. The microsomal pellet is gently resuspended in the same homogenization solution with a small glass/teflon homogenizer and stored at −70° C. The absence of mitochondrial contamination is enzymatically assessed. The protein concentration is measured using bovine serum albumin as the standard.
The tubes are vortexed vigorously and after 15 min incubation in a shaking water bath (37° C.), the reactions are stopped and fatty acids are analyzed.
Fatty acids are analyzed as follows: The reaction mixture is saponified with 10% KOH to obtain free fatty acids which are further methylated using BF3 in methanol. […] Fatty acid methyl esters are separated isocratically with acetonitrile/water (95:5 v:v) at a flow rate of 1 mL/min and are identified by comparison with authentic standards.
The compounds are analyzed with an HTS microsomal assay. The activities are defined in terms of % SCD enzyme activity remaining at the selected concentration (e.g., 10 μM) of the test compounds.

| Mouse Microsome 10% remaining @ 10 μM | SMILES |
| --- | --- |
| 8% | O=C(NCCC1CC1)c1ccc(N2CCN(Cc3ccc(Cl)cc3Cl)CC2)nn1 [6-[4-(2,4-DICHLOROBENZYL)-PIPERAZIN-1-YL]PYRIDAZINE-3-CARBOXYLIC ACID (2-CYCLOPROPYLETHYL)AMIDE] |
| 12% | O=C(NCCC1CC1)c1ccc(N2CCN(C(=O)c3cc(Cl)ccc3C(F)(F)F)CC2)nn1 [6-[4-(5-CHLORO-2-TRIFLUOROMETHYLBENZOYL)PIPERAZIN-1-YL]PYRIDAZINE-3-CARBOXYLIC ACID (2-CYCLOPROPYLETHYL)AMIDE] |
| 12% | O=C(NCCC1CC1)c1ccc(N2CCN(Cc3ccccc3C(F)(F)F)CC2)nn1 [6-[4-(2-TRIFLUOROMETHYLBENZYL)PIPERAZIN-1-YL]PYRIDAZINE-3-CARBOXYLIC ACID (2-CYCLOPROPYLETHYL)AMIDE] |
| 29% | CC(C)CCNC(=O)c1ccc(N2CCN(C(=O)N3CCN(C)CC3)CC2)nn1 [6-[4-(4-METHYLPIPERAZINE-1-CARBONYL)PIPERAZIN-1-YL]PYRIDAZIN E-3-CARBOXYLIC ACID (3-METHYLBUTYL)AMIDE] |
| 49% | O=C(NCC1CC1)c1ccc(N2CCN(C(=O)c3ccccc3C(F)(F)F)CC2)nn1 [6-[4-(2-TRIFLUOROMETHYLBENZOYL)PIPERAZIN-1-YL]PYRIDAZINE-3-CARBOXYLIC ACID CYCLOPROPYLMETHYLAMIDE] |
| 7% | COc1ccc(CCNC(=O)c2ccc(N3CCN(C(=O)c4ccccc4C(F)(F)F)CC3)nn2)cc1 [6-[4-(2-TRIFLUOROMETHYLBENZOYL)PIPERAZIN-1-YL]PYRIDAZINE-3-CARBOXYLIC ACID [2-(4-METHOXYPHENYL)ETHYL]AMIDE] |
| 0% | O=C(NCCc1ccccc1)c1ccc(N2CCN(C(=O)c3ccccc3C(F)(F)F)CC2)nn1 [6-[4-(2-Trifluoromethylbenzoyl)piperazin-1-yl]pyridazine-3-carboxylic acid phenethylamide] |
| 61% | CC(C)CCNC(=O)c1ccc(N2CCN(C(=O)c3c(C(F)(F)F)nnn3Cc3ccccc3)CC2)nn1 [6-[4-(3-BENZYL-5-TRIFLUOROMETHYL-3H-[1,2,3]TRIAZOLE-4-CARBONYL)PIPERAZIN-1-YL]PYRIDAZINE-3-CARBOXYLIC ACID (3-METHYLBUTYL)AMIDE] |
| 46% | CC(=O)Oc1ccccc1C(=O)N1CCN(c2ccc(C(=O)NCCC3CC3)nn2)CC1 [ACETIC ACID 2-{4-[6-(2-CYCLOPROPYLETHYLCARAMOYL)PYRIDAZIN-3-YL]-PIPERAZINE-1-CARBONYL}PHENYL ESTER] |
| 12% | O=C(NCCC1CC1)c1ccc(N2CCN(Cc3ccc(F)cc3C(F)(F)F)CC2)nn1 [6-[4-(4-FLUORO-2-TRIFLUOROMETHYLBENZYL)-PIPERAZIN-1-YL]PYRIDAZINE-3-CARBOXYLIC ACID (2-CYCLOPROPYLETHYL)AMIDE] |
| 24% | CC(c1ccccc1C(F)(F)F)N1CCN(c2ccc(C(=O)NCCC3CC3)nn2)CC1.Cl (centres unmarked) [6-{4-[1-(2-TRIFLUOROMETHYLPHENYL)ETHYL]PIPERAZIN-1-YL}-PYRIDAZINE-3-CARBOXYLIC ACID (2-CYCLOPROPYLETHYL)AMIDE HYDROCHLORIDE] |
| 10% | O=C(NCCC1CC1)c1ccc(N2CCN(C(=O)Cc3ccccc3C(F)(F)F)CC2)nn1 [6-{4-[2-(2-TRIFLUOROMETHYLPHENYL)ACETYL]PIPERAZIN-1-YL}PYRIDAZINE-3-CARBOXYLIC ACID (2-CYCLOPROPYLETHYL)AMIDE] |
| 26% | CC(C)CCNC(=O)c1ccc(N2CCN(C(=O)C3(C(F)(F)F)CC3)CC2)nn1 [6-[4-(1-TRIFLUOROMETHYLCYCLOPROPANECARBONYL)PIPERAZIN-1-YL]-PYRIDAZINE-3-CARBOXYLIC ACID (3-METHYLBUTYL)AMIDE] |
| 8% | O=C(NCCC1CC1)c1ccc(N2CCN(Cc3cc(Cl)ccc3Cl)CC2)nn1 [6-[4-(2,5-DICHLOROBENZYL)PIPERAZIN-1-YL]PYRIDAZINE-3-CARBOXYLIC ACID (2-CYCLOPROPYLETHYL)AMIDE] |
| 8% | CC(C)CCNC(=O)c1ccc(N2CCN(C(=O)c3cnccc3C(F)(F)F)CC2)nn1 [6-[4-(4-TRIFLUOROMETHYLPYRIDINE-3-CARBONYL)PIPERAZIN-1-YL]PYRIDAZINE-3-CARBOXYLIC ACID (3-METHYLBUTYL)AMIDE] |
| 94% | O=C(NCCC1CC1)c1ccc(N2CCN(C(=O)c3ccccn3)CC2)nn1 [6-[4-(PYRIDINE-2-CARBONYL)PIPERAZIN-1-YL]PYRIDAZINE-3-CARBOXYLIC ACID (2-CYCLOPROPYLETHYL)AMIDE] |
| 7% | O=C(NCCC1CC1)c1ccc(N2CCN(C(=O)c3ccoc3C(F)(F)F)CC2)nn1 [6-[4-(2-TRIFLUOROMETHYLFURAN-3-CARBONYL)PIPERAZIN-1-YL]PYRIDAZINE-3-CARBOXYLIC ACID (2-CYCLOPROPYLETHYL)AMIDE] |
| 8% | CC(C(=O)N1CCN(c2ccc(C(=O)NCCC3CC3)nn2)CC1)(C(F)(F)F)C(F)(F)F [6-[4-(3,3,3-TRIFLUORO-2-METHYL-2-TRIFLUOROMETHYLPROPIONYL)PIPERAZIN-1-YL]PYRIDAZINE-3-CARBOXYLIC ACID (2-CYCLOPROPYLETHYL)AMIDE] |
| 11% | CC(C)CCNC(=O)c1ccc(N2CCN(C(=O)CC(C)C(F)(F)F)CC2)nn1 (centres unmarked) [6-[4-(4,4,4-TRIFLUORO-3-METHYLBUTYRYL)PIPERAZIN-1-YL]PYRIDAZINE-3-CARBOXYLIC ACID (3-METHYLBUTYL)AMIDE] |
| 5% | O=C(NCCc1ccc(F)cc1F)c1ccc(N2CCN(C(=O)c3ccccc3C(F)(F)F)CC2)nn1 [6-[4-(2-TRIFLUOROMETHYLBENZOYL)PIPERAZIN-1-YL]PYRIDAZINE-3-CARBOXYLIC ACID [2-(2,4-DIFLUOROPHENYL)ETHYL]AMIDE] |

Continued, molecule first:

| SMILES | Mouse Microsome 10% remaining @ 10 μM |
| --- | --- |
| O=C(NCc1ccc(F)cc1)Nc1ccc(N2CCN(C(=O)c3ccccc3C(F)(F)F)CC2)nn1 [1-(4-FLUOROBENZYL)-3-{6-[4-(2-TRIFLUOROMETHYLBENZOYL)PIPERAZIN-1-YL]-PYRIDAZIN-3-YL}UREA] | 6% |
| O=C(NCCC1CC1)c1ccc(N2CCN(C(=O)C3(O)CC3)CC2)nn1 [6-[4-(1-HYDROXYCYCLOPROPANECARBONYL)PIPERAZIN-1-YL]PYRIDAZINE-3-CARBOXYLIC ACID (2-CYCLOPROPYLETHYL)AMIDE] | 73% |
| O=C(NCCc1ccccc1)Nc1ccc(N2CCN(C(=O)c3ccccc3C(F)(F)F)CC2)nn1 | 15% |
| O=C(Nc1ccc(F)cc1)Nc1ccc(N2CCN(C(=O)c3ccccc3C(F)(F)F)CC2)nn1 [1-(4-FLUOROPHENYL)-3-{6-[4-(2-TRIFLUOROMETHYLBENZOYL)PIPERAZIN-1-YL]-PYRIDAZIN-3-YL}UREA] | 82% |
| O=C(NCc1ccccc1)Nc1ccc(N2CCN(C(=O)c3ccccc3C(F)(F)F)CC2)nn1 [1-BENZYL-3-{6-[4-(2-TRIFLUOROMETHYLBENZOYL)PIPERAZIN-1-YL]PYRIDAZIN-3-YL}UREA] | 8% |
| CC(C)(C)OC(=O)N1CCN(c2ccc(C(=O)NCCC3CC3)nn2)CC1 [4-[6-(2-CYCLOPROPYLETHYLCARAMOYL)PYRIDAZIN-3-YL]PIPERAZINE-1-CARBOXYLIC ACID T-BUTYL ESTER] | 37% |
| CC(C)CCNC(=O)c1ccc(N2CCN(C(=O)OC(C)(C)C)CC2)nn1 [4-[6-(3-METHYLBUTYLCARAMOYL)PYRIDAZIN-3-YL]PIPERAZINE-1-CARBOXYLIC ACID T-BUTYL ESTER] | 11% |
| O=C(NCCC1CC1)c1ccc(N2CCN(C(=O)C3CCCCC3)CC2)nn1 [6-(4-CYCLOHEXANECARBONYLPIPERAZIN-1-YL)PYRIDAZINE-3-CARBOXYLIC ACID (2-CYCLOPROPYLETHYL)AMIDE] | 22% |
| CCCCNC(=O)Nc1ccc(N2CCN(C(=O)c3ccccc3C(F)(F)F)CC2)nn1 [1-BUTYL-3-{6-[4-(2-TRIFLUOROMETHYLBENZOYL)PIPERAZIN-1-YL]PYRIDAZIN-3-YL}UREA] | 13% |
| CC(NC(=O)Nc1ccc(N2CCN(C(=O)c3ccccc3C(F)(F)F)CC2)nn1)c1ccc(F)cc1 (centres unmarked) [1-[1-(4-Fluorophenyl)ethyl]-3-{6-[4-(2-trifluoromethylbenzoyl)piperazin-1-yl]pyridazin-3-yl}urea] | 45% |
| CCCCCNC(=O)Nc1ccc(N2CCN(C(=O)c3ccccc3C(F)(F)F)CC2)nn1 [1-PENTYL-3-{6-[4-(2-TRIFLUOROMETHYLBENZOYL)PIPERAZIN-1-YL]PYRIDAZIN-3-YL}UREA] | 6% |
| O=C(NCCCc1ccc(F)cc1)Nc1ccc(N2CCN(C(=O)c3ccccc3C(F)(F)F)CC2)nn1 [1-[3-(4-Fluorophenyl)propyl]-3-{6-[4-(2-trifluoromethylbenzoyl)piperazin-1-yl]pyridazin-3-yl}urea] | 14% |
| CC(C)CCNC(=O)c1ccc(N2CCN(C(=O)c3nnn(Cc4ccccc4)c3C(F)(F)F)CC2)nn1 [6-[4-(1-BENZYL-5-TRIFLUOROMETHYL-1H-[1,2,3]TRIAZOLE-4-CARBONYL)-PIPERAZIN-1-YL]PYRIDAZINE-3-CARBOXYLIC ACID (3-METHYLBUTYL)AMIDE] | 61% |
| CCOC(=O)CCNC(=O)Nc1ccc(N2CCN(C(=O)c3ccccc3C(F)(F)F)CC2)nn1 [3-(3-{6-[4-(2-TRIFLUOROMETHYLBENZOYL)PIPERAZIN-1-YL]-PYRIDAZIN-3-YL}-UREIDO)PROPIONIC ACID ETHYL ESTER] | 18% |
| CC(C)CCNC(=O)c1ccc(N2CCN(C(=O)c3cnn(C)c3C(F)(F)F)CC2)nn1 [6-[4-(1-METHYL-5-TRIFLUOROMETHYL-1H-PYRAZOLE-4-CARBONYL)PIPERAZIN-1-YL]-PYRIDAZINE-3-CARBOXYLIC ACID (3-METHYLBUTYL)AMIDE] | 15% |
